Laboratory results from patent publication US7417025B2, “Use of poly-α2,8-sialic acid mimetic peptides to modulate NCAM functions” (Centre National de la Recherche Scientifique, priority 2002, dated 2008).

Tests used:
[1] = system: mAb 735; assay: Competitive ELISA of biotinylated peptide-BSA conjugates on anti-PSA mAb; type: binding; settings: for Binding of peptide to mAb 735 in competitive ELISA (percentage of binding): biotinylated peptide-BSA conjugate
Source text: • mAb 735 and 30H12 • MaxiSorp™ plates (NUNC) for coating the antibody: ELISA plates • microtiter plates (NUNC) for peptide dilution: dilution plates • Biotinylated peptide-BSA conjugates prepared as above described • Extravidin alkaline phosphatase-avidin conjugate (SIGMA E2636) • p-nitrophenyl-phosphatase alkaline substrate (SIGMA 104-105) 2.1.2) Buffers • PBS pH 7.4 • Blocking solution: 0.5% BSA in PBS • TBS • TBST: TBS containing 0.05% Tween 20 • Extravidin alkaline phosphatase-avidin conjugate solution: 1/5000 in TBST • Alkaline phosphatase substrate solution; 1 tablet in 5 ml 50 mM NaHCO3, 1 mM MgCl2 solution, […]) Method
(§1) Maxisorp™ plate wells were coated with 100 μl mAb solution (25 μg/ml) for 2 h at room temperature. The control wells of the ELISA plates were only coated with the blocking solution. In parallel, the peptide-BSA conjugate dilution plates were blocked with 200 μl blocking solution for 2 h. The antibody coated wells and the control wells were blocked with 200 μl blocking solution for 1 h. In parallel the peptide-BSA conjugate dilution plates were washed 6 times with TBST and 120 μl TBST was added to the wells. An appropriate volume of peptide-BSA conjugate solution was added to the first well and the volume adjusted to 140 μl with TBST. The peptide-BSA conjugate in well one was diluted in the ratio 1/7 by taking 20 μl out of the first well and transferring into the second also to achieve the total volume of 140 μl. This was repeated for the remaining wells. The peptide-BSA conjugate dilutions for the control wells were done the same way. The blocked ELISA plates were washed 6 times with TBST and the peptide-BSA conjugate dilutions or 100 μl of the mixed competitor solution was added to the wells. After incubation for 1 h, the wells were washed 10 times with TBST and 100 μl of the alkaline phosphatase substrate solution was added to the wells. The plates were read out after 10 to 60 min using a microplate reader at 405 nm.
(§2) The specificity of peptide p21 (SEQ ID NO: 1) was investigated in a competition ELISA using biotinylated p21-BSA conjugate and a randomized variant of p21 (p22) conjugate as a control. The results presented in Tables X and XI are expressed as percentage of binding by comparison with peptide p21 at the highest concentration (9.45 10^-5 M) which corresponds to 100% binding.

[2] = target: BSA (Bos taurus, UniProt P02769); assay: Peptide-BSA conjugate ELISA, control wells coated only with blocking solution (BSA); type: binding; settings: biotinylated peptide-BSA conjugate, BSA-blocked wells, no mAb
Source text: • mAb 735 and 30H12 • MaxiSorp™ plates (NUNC) for coating the antibody: ELISA plates • microtiter plates (NUNC) for peptide dilution: dilution plates • Biotinylated peptide-BSA conjugates prepared as above described • Extravidin alkaline phosphatase-avidin conjugate (SIGMA E2636) • p-nitrophenyl-phosphatase alkaline substrate (SIGMA 104-105) 2.1.2) Buffers • PBS pH 7.4 • Blocking solution: 0.5% BSA in PBS • TBS • TBST: TBS containing 0.05% Tween 20 • Extravidin alkaline phosphatase-avidin conjugate solution: 1/5000 in TBST • Alkaline phosphatase substrate solution; 1 tablet in 5 ml 50 mM NaHCO3, 1 mM MgCl2 solution, pH 9.6. • mixed competitor solution: 1 mM colominic acid with a peptide-BSA conjugate gradient in TBST 2.1.3) Method
as §1, §2

[3] = peptide-BSA conjugate, in words

Chain of BSA (P02769 25-607): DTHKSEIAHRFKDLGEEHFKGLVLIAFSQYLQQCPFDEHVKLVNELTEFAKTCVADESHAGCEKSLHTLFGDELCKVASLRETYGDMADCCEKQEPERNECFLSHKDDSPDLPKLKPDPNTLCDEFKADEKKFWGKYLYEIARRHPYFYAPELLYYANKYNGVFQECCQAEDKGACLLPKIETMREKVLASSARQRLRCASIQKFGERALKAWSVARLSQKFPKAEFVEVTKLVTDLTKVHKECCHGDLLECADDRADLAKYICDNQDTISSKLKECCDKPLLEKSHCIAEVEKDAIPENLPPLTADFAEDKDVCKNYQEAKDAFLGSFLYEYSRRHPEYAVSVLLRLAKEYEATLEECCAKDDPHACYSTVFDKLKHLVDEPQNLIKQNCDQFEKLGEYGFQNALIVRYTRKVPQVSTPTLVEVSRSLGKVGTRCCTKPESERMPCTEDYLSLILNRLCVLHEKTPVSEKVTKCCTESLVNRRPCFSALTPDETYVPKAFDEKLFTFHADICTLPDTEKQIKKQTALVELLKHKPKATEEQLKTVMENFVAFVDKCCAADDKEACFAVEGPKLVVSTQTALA

## PDHIFVFSPDLP [p22, reference compound]
[1]; peptide 1.62 10^−9 M, + chondroitin sulfate C
  Binding of peptide to mAb 735 in competitive ELISA (percentage of binding): 2 ± 0%
[1]; peptide 1.62 10^−9 M, + colominic acid 1 mM
  Binding of peptide to mAb 735 in competitive ELISA (percentage of binding): 0 ± 0%
[1]; peptide 1.62 10^−9 M, no competitor
  Binding of peptide to mAb 735 in competitive ELISA (percentage of binding): 0 ± 0%
[1]; peptide 1.67 10^−5 M, + chondroitin sulfate C
  Binding of peptide to mAb 735 in competitive ELISA (percentage of binding): 8 ± 1%
[1]; peptide 1.67 10^−5 M, + colominic acid 1 mM
  Binding of peptide to mAb 735 in competitive ELISA (percentage of binding): 5 ± 0%
[1]; peptide 1.67 10^−5 M, no competitor
  Binding of peptide to mAb 735 in competitive ELISA (percentage of binding): 9 ± 0%
[1]; peptide 2.86 10^−9 M, + chondroitin sulfate C
  Binding of peptide to mAb 735 in competitive ELISA (percentage of binding): 2 ± 0%
[1]; peptide 2.86 10^−9 M, + colominic acid 1 mM
  Binding of peptide to mAb 735 in competitive ELISA (percentage of binding): 0 ± 0%
[1]; peptide 2.86 10^−9 M, no competitor
  Binding of peptide to mAb 735 in competitive ELISA (percentage of binding): 0 ± 0%
[1]; peptide 2.94 10^−6 M, + chondroitin sulfate C
  Binding of peptide to mAb 735 in competitive ELISA (percentage of binding): 3 ± 1%
[1]; peptide 2.94 10^−6 M, + colominic acid 1 mM
  Binding of peptide to mAb 735 in competitive ELISA (percentage of binding): 0 ± 0%
[1]; peptide 2.94 10^−6 M, no competitor
  Binding of peptide to mAb 735 in competitive ELISA (percentage of binding): 1 ± 0%
[1]; peptide 5.04 10^−10 M, + chondroitin sulfate C
  Binding of peptide to mAb 735 in competitive ELISA (percentage of binding): 2 ± 0%
[1]; peptide 5.04 10^−10 M, + colominic acid 1 mM
  Binding of peptide to mAb 735 in competitive ELISA (percentage of binding): 0 ± 0%
[1]; peptide 5.04 10^−10 M, no competitor
  Binding of peptide to mAb 735 in competitive ELISA (percentage of binding): 0 ± 0%
[1]; peptide 5.20 10^−7 M, + chondroitin sulfate C
  Binding of peptide to mAb 735 in competitive ELISA (percentage of binding): 2 ± 0%
[1]; peptide 5.20 10^−7 M, + colominic acid 1 mM
  Binding of peptide to mAb 735 in competitive ELISA (percentage of binding): 0 ± 0%
[1]; peptide 5.20 10^−7 M, no competitor
  Binding of peptide to mAb 735 in competitive ELISA (percentage of binding): 0 ± 0%
[1]; peptide 8.89 10^−11 M, + chondroitin sulfate C
  Binding of peptide to mAb 735 in competitive ELISA (percentage of binding): 2 ± 0%
[1]; peptide 8.89 10^−11 M, + colominic acid 1 mM
  Binding of peptide to mAb 735 in competitive ELISA (percentage of binding): 0 ± 0%
[1]; peptide 8.89 10^−11 M, no competitor
  Binding of peptide to mAb 735 in competitive ELISA (percentage of binding): 0 ± 0%
[1]; peptide 9.27 10^−8 M, + chondroitin sulfate C
  Binding of peptide to mAb 735 in competitive ELISA (percentage of binding): 2 ± 1%
[1]; peptide 9.27 10^−8 M, + colominic acid 1 mM
  Binding of peptide to mAb 735 in competitive ELISA (percentage of binding): 0 ± 0%
[1]; peptide 9.27 10^−8 M, no competitor
  Binding of peptide to mAb 735 in competitive ELISA (percentage of binding): 0 ± 0%
[1]; peptide 9.45 10^−5 M, + chondroitin sulfate C
  Binding of peptide to mAb 735 in competitive ELISA (percentage of binding): 29 ± 0%
[1]; peptide 9.45 10^−5 M, + colominic acid 1 mM
  Binding of peptide to mAb 735 in competitive ELISA (percentage of binding): 27 ± 0%
[1]; peptide 9.45 10^−5 M, no competitor
  Binding of peptide to mAb 735 in competitive ELISA (percentage of binding): 32 ± 1%
[1]; [3]
  Binding of peptide to mAb 735: no binding
  Effect of colominic acid or chondroitin sulfate C on binding to mAb 735: no differences were observed
[2]; peptide 1.62 10^−9 M
  Binding of peptide to BSA control wells (percentage of binding): 0 ± 0%
[2]; peptide 1.67 10^−5 M
  Binding of peptide to BSA control wells (percentage of binding): 1 ± 1%
[2]; peptide 2.86 10^−9 M
  Binding of peptide to BSA control wells (percentage of binding): 0 ± 0%
[2]; peptide 2.94 10^−6 M
  Binding of peptide to BSA control wells (percentage of binding): 0 ± 0%
[2]; peptide 5.04 10^−10 M
  Binding of peptide to BSA control wells (percentage of binding): 0 ± 0%
[2]; peptide 5.20 10^−7 M
  Binding of peptide to BSA control wells (percentage of binding): 0 ± 0%
[2]; peptide 8.89 10^−11 M
  Binding of peptide to BSA control wells (percentage of binding): 0 ± 0%
[2]; peptide 9.27 10^−8 M
  Binding of peptide to BSA control wells (percentage of binding): 0 ± 0%
[2]; peptide 9.45 10^−5 M
  Binding of peptide to BSA control wells (percentage of binding): 3 ± 1%
